Reference: US8007835B2, “Hibiscusanthocyanins for inhibiting cancers” (Aiken Biotechnology International Co., Ltd., priority 2005, dated 2011)

Assays:
[1] = system: HL-60 cells; assay: Flow cytometry (PI) cell cycle and quantification of apoptosis; details: for effect of inhibitor on HAs-induced apoptosis (cytotoxic action of HAs): PD98059 25 AM, SP600125 20 AM, wortmannin 1 AM, then HAs 3 mg/ml 24 h
Description: Flow cytometric analysis of HL-60 cells was performed on the 24-h cultures using a FACScan. The cells of harvest were centrifuged at 1000 rpm for 5 min at room temperature. Thereafter, cells were washed once with Tris-buffered saline (TBS). Then cell suspension was centrifuged again (1000 rpm, 5 min) and resuspended in 70% ethanol. After incubation at −20 for at least 24 h, the cells were resuspended in 1 ml of cell cycle assay buffer [50 μg/ml propidium iodide (PI), 50 μg/ml RNase A, and 0.1% Triton X-100], and it was incubated for 15 min in darkness. Propidium iodide (Sigma) was excited at 488 nm, and fluorescence signal was subjected to logarithmic amplification with PI fluorescence (red) being detected above 600 nm. Cell cycle distribution is presented as the number of cells versus the amount of DNA as indicated by the intensity of fluorescence, and the extent of apoptosis was determined by counting cells of DNA content below the G0/G1 peak.

[2] = system: c-Jun; assay: Western blot, phosphorylated c-Jun in HL-60 cells; type: cell-based, human; details: pretreatment with SB203580 (50 AM), then HAs 3 mg/ml 6 h
Description: (§1) The medium was removed, and the cells were rinsed with TBS at room temperature. Then 500 μl of cold RIPA buffer (1% NP-40, 50 mM Tris-base, 0.1% SDS, 0.5% deoxycholic acid, and 150 mM NaCl, pH 7.5) with three kinds of proteinase freshly added (10 μg/ml leupeptin, 10 μg/ml PMSF, and 17 μg/ml sodium orthovanadate) were used. After sonication for 1 h at 4° C., a centrifugation (10,000×g) of cell lysate was performed for 10 min at 4° C. The supernatant (50 μg protein) was mixed with an equal volume of electrophoresis sample buffer and boiled for 10 min, which was then subjected to SDS-polyacrylamide gel electrophoresis using a 10% running gel, and electroblotted to nitrocellulose membranes (Millipore, Bedford, Mass., USA). Nonspecific binding was blocked by incubation of the membrane with TBS containing 1% (W/V) nonfat dry milk and 0.1% (v/v) Tween-20 (TBST) for more than 2 h. Membranes were washed with TBST three times for 10 min and incubated with appropriate dilution of primary antibody in TBST for 2 h. Membranes were then extensively washed with TBST before being incubated with appropriate horseradish peroxidase-conjugated secondary antibody for 1 h. After washing the membrane three times, 10 min each in TBST, detection was performed using ECLWestern blotting detection reagents (Amersham, Arlington Heights, Ill., USA).

[3] = system: Fas; assay: Western blot, Fas expression in HL-60 cells; type: cell-based, human; details: pretreatment with SB203580 (50 AM), then HAs 3 mg/ml 6 h
Description: as §1

[4] = system: FasL; assay: Western blot, FasL expression in HL-60 cells; type: cell-based, human; details: pretreatment with SB203580 (50 AM), then HAs 3 mg/ml 6 h
Description: as §1

For Oc1c2ccccc2c2c3c(cccc13)N=N2 [SP600125, 1,9-pyrazoloanthrone], the “effect of inhibitor on HAs-induced apoptosis (cytotoxic action of HAs)” value [1] was “did not reduce the cytotoxic action of HAs”.
In the case of C[S+]([O-])c1ccc(-c2nc(-c3ccc(F)cc3)c(-c3ccncc3)[nH]2)cc1 (stereo not shown) [SB203580, 4-[4-fluorophenyl]-2-[4-methylsulfinylphenyl]-5-[4-pyridyl]-1H-imidazole], the “c-Jun (phospho-c-Jun) expression” value [2] is reported as “down-regulated”, the Fas expression [3] is reported as “down-regulated” and the FasL expression [4] is reported as “down-regulated”. The “reduction in the sub-G1 phase compared to HAs alone” value ([1]; 50 AM SB203580 followed by 24-h exposure to HAs (3 mg/ml)) was ~50% and the sub-G1 phase ([1]; 50 AM SB203580 preincubation followed by 24-h exposure to HAs (3 mg/ml)) was 27.39%.
With COC[C@H]1OC(=O)c2coc3c2[C@@]1(C)C1=C(C3=O)[C@@H]2CCC(=O)[C@@]2(C)C[C@H]1OC(C)=O [wortmannin] the “effect of inhibitor on HAs-induced apoptosis (cytotoxic action of HAs)” value [1] was “did not reduce the cytotoxic action of HAs”.
